{"source": "patent US11835499B2", "about": "“Methods of quantifying methylglyoxal-induced nucleic acid adducts” (CITY OF HOPE, priority 2018, dated 2023)", "key": {"[1]": {"system": "DNA extracted from breast tumor or adjacent tissue", "assay": "Artifactual CEdG formation during DNA extraction from human breast tumor and adjacent tissue, with carbonyl scavenger", "conditions": "10 mM D-penicillamine in two aliquots during cell lysis/DNA isolation and hydrolysis/dephosphorylation", "method": "Breast tumor and adjacent normal tissue were obtained from the frozen tumor bank of the City of Hope Pathology Core. A pea-sized section (˜100 mg) of tissue was minced and suspended in 1.2 mL of digestion buffer (100 mM NaCl, 10 mM Tris HCl, pH 8, 25 mM EDTA, pH 8, 0.5% SDS, 0.2 mg/mL proteinase K, 10 mM D-penicillamine) and incubated at 50° C. in a water bath for 12-18 h. DNA was then extracted using an equivalent volume of phenol/chloroform/isoamyl alcohol (25:24:1). The aqueous fraction was separated and 0.5 volumes of ammonium acetate and 2 volumes of 100% ethanol were added. The DNA was spooled, washed twice with 70% ethanol, pelleted, and resuspended in autoclaved 18.2 MΩ water. The enzymatic hydrolysis was carried out as described above.\nLevels of CEdG in DNA extracted from either breast tumor or adjacent tissue in the absence of carbonyl scavenger were ˜1.5-2.0-fold higher; however, artifactual formation was inhibited by the addition of 10 mM D-penicillamine in two aliquots during both the cell lysis/DNA isolation and hydrolysis/dephosphorylation steps. ^15N-enriched isotopomers of CEdG differing from the unlabeled adducts by 5 amu were synthesized, which provided sufficient mass resolution for accurate and reproducible quantitation using the stable isotope dilution method."}, "[2]": {"system": "calf thymus DNA", "assay": "Artifactual CEdG formation in calf thymus DNA during workup, with carbonyl scavenger", "method": "Calf thymus or tissue-extracted DNA (100 μg) was dissolved in 80 μL of autoclaved 18.2 MΩ H2O containing 20 μL of sodium acetate (100 mM, pH 5.5), 20 μL of 1×TBE, 1.5 μL of 50 mM ZnCl2, and 2.37 μL of a 100 mM AG or D-P stock solution. DNA was denatured at 95° C. for 5 min on a PCR heating block and then brought to 4° C. for 5 min. After equilibration to 45° C., 1.5 μL of 10 U/μL nuclease P1 was added. Alkaline phosphatase (4 μL of 8 U/μL), 1 U of bovine phosphodiesterase, and 14 μL of 100 mM CaCl2 were added after 1 hour, and the hydrolysis/dephosphorylation was continued for another 7 hours. […] DNA concentrations were determined by UV spectroscopy (1 OD260=50 μg/ml) and samples were stored at −80° C. prior to MS analyses. A 5 μL aliquot of digest was diluted to 200 μL and used for quantitation of 2′-deoxyguanosine by HPLC integration using a Beckman C18 reverse phase (25 cm×4.6 mm) column (Fullerton, CA). […]\nCommercial grade calf thymus DNA was used as a model substrate for developing a protocol for CEdG quantitation in double-stranded DNA. […] Concentrations of AG from 0.5 to 50 mM were added prior to workup, and CEdG levels were measured in order to determine the optimal concentration required to achieve stable, reproducible levels. […]"}, "[3]": {"assay": "Stability of CEdG in acidic solution (acid-catalyzed depurination and sidechain isomerization)", "assay_type": "physicochemical", "conditions": "acidic hydrolysis, 1 M AcOH at 37° C.", "method": "A 1.25 mM solution of CEdG-A, B or dG in 100 μL of 1M AcOH (pH 2.4) was stirred at 37° C. Aliquots (10 μl) were removed periodically and added to 40 μL of 2M TEAA (pH 7.0). HPLC product analyses were performed using an Alltech HS HyperPrep 100 BDS C18 8μ column. A gradient of 0 to 4% CH3CN over 5 min was followed by 6.5% CH3CN over 30 min. TEAA (pH 7) was kept constant at 50 mM. The ratio of free base (CEGuanine or Guanine) to intact nucleoside (CEdG or dG) was calculated by integration of the corresponding HPLC peaks (see inset in FIG. 4). The CEG free base was identified as Peak A by ESI-MS in negative ion mode. C8H8O3N5, observed: m/z 222.064; calculated: m/z 222.063.\nThe chemical stability of CEdG was examined as an important criterion for evaluating its suitability as a quantitative biomarker. Purified stereoisomers of synthetic CEdG were subjected to acidic conditions (1 M AcOH at 37° C.) and the extent of released free base and diastereomer interconversion was monitored by HPLC as a function of time."}}}
{"compound": "CC(C)(S)[C@@H](N)C(=O)O", "note": "[D-penicillamine]", "values": [{"measurement": "artifactual CEdG formation", "setting": "[1]", "result": "inhibited"}]}
{"compound": "N=C(N)NN", "note": "[AG, aminoguanidine]", "values": [{"measurement": "CEdG adduct levels after hydrolysis/dephosphorylation", "setting": "[2]; 10 mM AG added prior to sample processing, without scavenger 60-66 CEdG/10^6 dG", "result": "45-50 CEdG/10^6 guanines"}, {"measurement": "CEdG levels after mock proteolysis and hydrolysis/dephosphorylation", "setting": "[2]; 10 mM AG in two aliquots, without scavenger 80-100 CEdG/10^6 guanines", "result": "drop in measured CEdG levels"}]}
{"compound": "CC(Nc1nc2c(ncn2[C@H]2C[C@H](O)[C@@H](CO)O2)c(=O)[nH]1)C(=O)O", "note": "(single isomer, unassigned) [CEdG-A, N^2-(1-carboxyethyl)-2′-deoxyguanosine]", "values": [{"measurement": "racemization of the sidechain stereocenter / interconversion of CEdG isomers A and B", "setting": "[3]", "result": "No racemization"}]}
{"compound": "CC(Nc1nc2c(ncn2[C@H]2C[C@H](O)[C@@H](CO)O2)c(=O)[nH]1)C(=O)O", "note": "(single isomer, unassigned) [CEdG-B, N^2-(1-carboxyethyl)-2′-deoxyguanosine]", "values": [{"measurement": "racemization of the sidechain stereocenter / interconversion of CEdG isomers A and B", "setting": "[3]", "result": "No racemization"}]}
